Test results as given in patent publication US20100240748A1, “TETRAHYDRONAPHTHALEN-2-OL DERIVATIVES” (N. V. Organon, priority 2009, published 2010).

Key:
[1] = metabolic stability in human hepatocytes; assay type: in vitro ADME; conditions: human, cryopreserved human hepatocytes (suspension); tetrahydronaphthalen-2-ol; 37° C., sampled 0-120 min, LC-MS/MS; read-out: Human hepatocyte T 1/2
Protocol: (§1) A number of compounds 9, 11 and 12 were tested on metabolic stability in human hepatocytes. The hepatic stability was compared to corresponding chroman compounds 25, 26 or 27 (see structures below).
(§2) Test compounds were diluted to 3 μM in incubation medium. Then 40 μl of the 3 μM test compounds was pipetted into a 96 well microtiter plate (flat bottom). Hepatocytes (stored at −140° C.) were thawed in a 37° C. water bath. The cells were resuspended into pre-warmed thawing medium and were centrifuged for 5 minutes at 50 g at room temperature. The supernatant was discarded and the remaining cell pellet was resuspended in warm incubation medium and diluted to 7.5 E5 cells/ml. Then 80 μl of the cell suspension was added to each well of the 96 well microtiter plate containing the test compounds. The resulting mixture was incubated at 37° C. and was sampled at t=0, 5, 30, 60, and 120 min. The samples were analyzed by LC-MS/MS to determine the content of unchanged test compound. Based on the rate of reduction of the content of test compound over time, the half-live (T½) was calculated.

[2] = target: T1, human estrogen receptor α (hERα) (Homo sapiens, UniProt P03372); assay: ERα transactivation bioassay in recombinant CHO cells (hERα, rat oxytocin promoter, luciferase reporter); assay type: cell-based; conditions: ratio of activities of eutomer and distomer on ERα
T1 sequence (P03372 1-595): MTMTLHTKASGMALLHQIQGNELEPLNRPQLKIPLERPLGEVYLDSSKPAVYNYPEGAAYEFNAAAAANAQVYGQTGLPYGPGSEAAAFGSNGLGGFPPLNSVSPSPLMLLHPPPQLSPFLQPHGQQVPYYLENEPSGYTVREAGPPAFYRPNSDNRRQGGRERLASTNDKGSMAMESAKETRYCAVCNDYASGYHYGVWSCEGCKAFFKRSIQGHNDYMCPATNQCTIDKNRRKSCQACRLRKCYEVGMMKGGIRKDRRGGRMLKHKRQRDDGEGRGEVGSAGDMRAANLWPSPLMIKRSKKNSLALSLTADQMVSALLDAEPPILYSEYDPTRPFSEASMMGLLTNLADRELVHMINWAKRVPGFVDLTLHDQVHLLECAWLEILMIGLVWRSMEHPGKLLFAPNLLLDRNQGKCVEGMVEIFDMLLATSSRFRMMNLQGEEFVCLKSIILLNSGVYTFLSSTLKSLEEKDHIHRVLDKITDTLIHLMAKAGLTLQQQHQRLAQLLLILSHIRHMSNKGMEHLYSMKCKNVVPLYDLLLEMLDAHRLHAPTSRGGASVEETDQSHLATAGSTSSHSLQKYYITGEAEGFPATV
Protocol: (§3) The estrogenic and antiestrogenic activity of compounds was determined in an in vitro bioassay with recombinant Chinese hamster ovary (CHO) cells stably co-transfected with the human estrogen receptor α (hERα) or β receptor (hERβ), the rat oxytocin promoter (RO) and the luciferase reporter gene (LUC). The estrogenic activity of a test compound to stimulate the transactivation of the enzyme luciferase mediated via the estrogen receptors hERα or hERβ is expressed in nM. The assay was performed as described by De Gooyer et al., Steroids 68 (2003), 21-30.

[3] = target: human estrogen receptor β (hERβ) (Homo sapiens, UniProt Q92731); assay: ERβ transactivation bioassay in recombinant CHO cells (hERβ, rat oxytocin promoter, luciferase reporter); assay type: cell-based; conditions: for ERβ/ERα ratio: ERβ agonistic selectivity over ERα, transactivation data; for EC50: transactivation of luciferase in CHO cells co-transfected with hERβ, read-out: ERβ agonistic EC50
Protocol: as §3

[4] = tested on: human hepatocytes; assay: metabolic stability in human hepatocytes; assay type: in vitro ADME; conditions: tetrahydronaphthalen-2-ol; 37° C., sampled 0-120 min, LC-MS/MS
Protocol: as §1, §2

[5] = tested on: acinar epithelium of the ventral prostate; assay: short-term prostate apoptosis and proliferation model in castrated rats; assay type: in vivo, rat
Protocol: Selected compounds were tested in a short-term prostate apoptosis and proliferation model in castrated rats.
Intact mature male Wistar rats (350-400 g) were castrated and left to recover for 1 week. 7 days after the castration rats received a single subcutaneous injection of testosterone buciclate (TB), a long-acting testosterone ester, in arachis oil (20 mg/kg) with a volume of 1 ml/kg and were subsequently treated once daily orally for 3 days with the test substance at doses between 0 and 1000 μg/kg, dissolved in gelatin/mannitol and dosed with a volume of 1 ml/kg.
At the end of the experiment rats were euthanized, the prostates were removed, weighed and processed for histology.
Apoptosis of the acinar epithelium of the ventral prostate was determined with TUNEL ([…]) staining. Apoptotic cells show nuclear DNA fragmentation and the TUNEL assay end-labels the fragmented DNA by incorporating biotinylated dUTP at the 3′-OH DNA ends using the enzyme Terminal deoxynucleotidyl Transferase (TdT). Positively stained cells are counted per acinus (glandular unit) in the ventral prostate. Proliferation of the acinar epithelium of the ventral prostate was determined by immunohistochemical staining with an antibody directed against Ki67 (clone Mib5). Positively stained cells are counted per acinus (glandular unit) in the ventral prostate. Statistical significance is determined as compared to TB alone by one-way ANOVA.

human estrogen receptor β (hERβ), sequence (Q92731 whole entry): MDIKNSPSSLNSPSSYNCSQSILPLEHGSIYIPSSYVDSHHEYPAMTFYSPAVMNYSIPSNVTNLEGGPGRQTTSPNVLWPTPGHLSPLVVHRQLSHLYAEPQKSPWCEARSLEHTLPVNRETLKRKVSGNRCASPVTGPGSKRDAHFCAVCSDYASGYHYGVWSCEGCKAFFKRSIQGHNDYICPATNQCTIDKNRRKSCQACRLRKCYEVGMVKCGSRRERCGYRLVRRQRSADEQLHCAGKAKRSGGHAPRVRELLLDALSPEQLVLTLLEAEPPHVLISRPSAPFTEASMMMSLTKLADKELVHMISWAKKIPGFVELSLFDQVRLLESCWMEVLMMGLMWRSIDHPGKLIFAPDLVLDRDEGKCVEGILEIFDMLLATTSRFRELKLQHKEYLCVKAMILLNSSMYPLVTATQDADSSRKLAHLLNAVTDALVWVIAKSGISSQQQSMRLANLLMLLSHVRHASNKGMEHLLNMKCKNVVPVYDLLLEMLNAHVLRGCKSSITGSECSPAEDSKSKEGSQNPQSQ

Compound | half-life at 1 µM [1] [min] | ERβ/ERα ratio [3] | EC50 [3] [nM] | also measured
CC[C@@H]1[C@H](c2ccc(O)c(F)c2)Cc2ccc(O)cc2[C@@H]1Cc1ccccc1F (single isomer, unassigned) [Compound 12q] | > 120 |  |  | 
(6S,7S,8S)-7-ethyl-6-(3- fluoro-4-hydroxyphenyl)- 8-(2-fluorobenzy1)-5,6, 7,8-tetrahydro- naphthalen-2-ol [Compound 11q] |  | >169 | 0.59 | ERα eudismic ratio [2]: <0.3; ERβ eudismic ratio ([3]; ratio of activities of eutomer and distomer on ERβ): 7; Human hepatocyte T 1/2 [4]: 82.2 min
CCC1C(c2ccc(O)c(F)c2)Cc2ccc(O)cc2C1Cc1ccccc1F (racemic) [Compound 9q, 7-ethyl-6-(3-fluoro-4-hydroxyphenyl)-8-(2-fluorobenzyl)-5,6,7,8-tetrahydronaphthalen-2-ol] |  | >67 | 1.5 | 
C[C@H]1[C@@H](c2ccc(O)cc2)Cc2ccc(O)cc2[C@H]1Cc1c(F)cccc1F (single isomer, unassigned) [Compound 11i] | 29.4 |  |  | 
C[C@@H]1[C@H](c2ccc(O)cc2)Cc2ccc(O)cc2[C@@H]1Cc1c(F)cccc1F (single isomer, unassigned) [Compound 12i] | 33.7 |  |  | 
C[C@H]1[C@@H](c2ccc(O)cc2)Cc2ccc(O)cc2[C@H]1Cc1ccccc1F (single isomer, unassigned) [Compound 11a] |  |  |  | epithelial cell proliferation ([5]; at 3 μg/kg, Ki67 staining, compared to TB-alone treated rats): decrease in epithelial cell proliferation; minimal active dose (MAD), increase in epithelial cell apoptosis ([5]; castrated Wistar rats with testosterone buciclate, once daily orally for 3 days, TUNEL staining, ventral prostate): 3 µg/kg; epithelial cell apoptosis ([5]; castrated rats, TUNEL staining, compared to TB alone, one-way ANOVA): statistically significant (p<0.01) increase in epithelial cell apoptosis
